ChEMBL document CHEMBL5543158, “Design of Evodiamine-Glucose Conjugates with Improved In Vivo Antitumor Activity” (J Med Chem, 2024)
Values after ≈ are worked out from the molar mass of the structure shown.

Assays:
A549 = assay: Antiproliferative activity against human A549 cells measured after 72 hrs by CCK-8 cells; format: functional, cell-based; conditions: A549, 72 h
HCT-116 = assay: Antiproliferative activity against human HCT116 cells measured after 72 hrs by CCK-8 cells; format: functional, cell-based; conditions: HCT-116, 72 h
U-87 MG = assay: Antiproliferative activity against human U-87 MG cells measured after 72 hrs by CCK-8 cells; format: functional, cell-based, U-87MG ATCC
[1] = Solubility of the compound in double distilled water measured upto 30 mins by UV-vis spectrophotometry; format: physicochemical

CN1c2ccc(F)cc2C(=O)N2CCc3c([nH]c4ccc(OC(=O)CCCC(=O)NCCCO[C@@H]5O[C@H](CO)[C@@H](O)[C@H](O)[C@H]5O)cc34)[C@H]21 showed an IC50 (A549) of 54 nM, an IC50 (HCT-116) of 54 nM and an IC50 (U-87 MG) of 54 nM. It also gave a solubility at 0.5 h [1] of 2470 µg/mL (≈ 3.68 mM).
